{
  "source": "ChEMBL document CHEMBL1914402",
  "about": "“Design, synthesis, and biological evaluation of 3,4-dihydroquinolin-2(1H)-one and 1,2,3,4-tetrahydroquinoline-based selective human neuronal nitric oxide synthase (nNOS) inhibitors” (J Med Chem, 2011)",
  "key": {"Nitric oxide synthase 1": {"biological_target": "Nitric oxide synthase 1 (Homo sapiens, UniProt P29475)", "sequence (P29475 whole entry)": "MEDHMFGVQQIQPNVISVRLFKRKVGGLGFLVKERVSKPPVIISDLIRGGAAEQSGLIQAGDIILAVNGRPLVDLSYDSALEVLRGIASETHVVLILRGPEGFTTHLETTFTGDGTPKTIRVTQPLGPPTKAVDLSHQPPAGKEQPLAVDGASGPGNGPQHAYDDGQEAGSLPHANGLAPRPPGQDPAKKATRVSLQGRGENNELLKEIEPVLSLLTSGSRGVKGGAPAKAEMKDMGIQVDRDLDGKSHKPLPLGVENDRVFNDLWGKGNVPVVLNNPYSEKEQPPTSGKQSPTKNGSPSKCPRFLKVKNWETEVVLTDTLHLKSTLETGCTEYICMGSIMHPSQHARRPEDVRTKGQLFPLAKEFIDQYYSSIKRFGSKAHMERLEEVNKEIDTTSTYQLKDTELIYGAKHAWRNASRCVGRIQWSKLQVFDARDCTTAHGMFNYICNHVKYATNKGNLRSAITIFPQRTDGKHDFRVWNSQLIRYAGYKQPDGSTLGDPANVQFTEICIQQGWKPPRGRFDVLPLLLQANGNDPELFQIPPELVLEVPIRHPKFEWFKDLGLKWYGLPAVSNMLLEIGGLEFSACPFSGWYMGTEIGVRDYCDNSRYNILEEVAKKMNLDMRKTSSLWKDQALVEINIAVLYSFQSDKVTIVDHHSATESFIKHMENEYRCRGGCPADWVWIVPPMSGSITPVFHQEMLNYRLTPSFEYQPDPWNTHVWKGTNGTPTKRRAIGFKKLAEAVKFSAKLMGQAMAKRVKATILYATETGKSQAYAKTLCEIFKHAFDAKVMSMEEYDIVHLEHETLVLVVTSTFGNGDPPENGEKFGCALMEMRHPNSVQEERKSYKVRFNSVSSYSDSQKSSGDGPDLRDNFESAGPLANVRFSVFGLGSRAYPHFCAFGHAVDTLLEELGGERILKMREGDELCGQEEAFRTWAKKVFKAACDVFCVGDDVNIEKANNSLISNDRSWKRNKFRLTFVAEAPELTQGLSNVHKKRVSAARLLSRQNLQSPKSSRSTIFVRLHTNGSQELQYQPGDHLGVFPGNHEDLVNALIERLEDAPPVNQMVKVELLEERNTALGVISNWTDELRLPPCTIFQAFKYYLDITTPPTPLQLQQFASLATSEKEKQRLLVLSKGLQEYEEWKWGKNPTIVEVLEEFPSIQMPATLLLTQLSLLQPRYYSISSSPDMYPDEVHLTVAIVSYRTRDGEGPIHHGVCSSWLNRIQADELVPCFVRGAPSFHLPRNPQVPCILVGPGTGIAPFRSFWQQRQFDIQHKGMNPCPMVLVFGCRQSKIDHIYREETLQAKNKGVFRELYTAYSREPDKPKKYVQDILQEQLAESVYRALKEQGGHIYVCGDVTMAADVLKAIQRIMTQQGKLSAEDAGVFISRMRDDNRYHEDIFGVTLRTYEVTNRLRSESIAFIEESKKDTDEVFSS", "test": "Inhibition of human recombinant nNOS expressed in baculovirus infected Sf9 cells assessed as conversion of [3H]L-arginine to [3H]L-citrulline preincubated for 15 mins measured after 45 mins by liquid scintillation counting", "assay_type": "cell-based"}, "[1]": {"biological_target": "Nitric oxide synthase, inducible (Homo sapiens, UniProt P35228)", "sequence (P35228 whole entry)": "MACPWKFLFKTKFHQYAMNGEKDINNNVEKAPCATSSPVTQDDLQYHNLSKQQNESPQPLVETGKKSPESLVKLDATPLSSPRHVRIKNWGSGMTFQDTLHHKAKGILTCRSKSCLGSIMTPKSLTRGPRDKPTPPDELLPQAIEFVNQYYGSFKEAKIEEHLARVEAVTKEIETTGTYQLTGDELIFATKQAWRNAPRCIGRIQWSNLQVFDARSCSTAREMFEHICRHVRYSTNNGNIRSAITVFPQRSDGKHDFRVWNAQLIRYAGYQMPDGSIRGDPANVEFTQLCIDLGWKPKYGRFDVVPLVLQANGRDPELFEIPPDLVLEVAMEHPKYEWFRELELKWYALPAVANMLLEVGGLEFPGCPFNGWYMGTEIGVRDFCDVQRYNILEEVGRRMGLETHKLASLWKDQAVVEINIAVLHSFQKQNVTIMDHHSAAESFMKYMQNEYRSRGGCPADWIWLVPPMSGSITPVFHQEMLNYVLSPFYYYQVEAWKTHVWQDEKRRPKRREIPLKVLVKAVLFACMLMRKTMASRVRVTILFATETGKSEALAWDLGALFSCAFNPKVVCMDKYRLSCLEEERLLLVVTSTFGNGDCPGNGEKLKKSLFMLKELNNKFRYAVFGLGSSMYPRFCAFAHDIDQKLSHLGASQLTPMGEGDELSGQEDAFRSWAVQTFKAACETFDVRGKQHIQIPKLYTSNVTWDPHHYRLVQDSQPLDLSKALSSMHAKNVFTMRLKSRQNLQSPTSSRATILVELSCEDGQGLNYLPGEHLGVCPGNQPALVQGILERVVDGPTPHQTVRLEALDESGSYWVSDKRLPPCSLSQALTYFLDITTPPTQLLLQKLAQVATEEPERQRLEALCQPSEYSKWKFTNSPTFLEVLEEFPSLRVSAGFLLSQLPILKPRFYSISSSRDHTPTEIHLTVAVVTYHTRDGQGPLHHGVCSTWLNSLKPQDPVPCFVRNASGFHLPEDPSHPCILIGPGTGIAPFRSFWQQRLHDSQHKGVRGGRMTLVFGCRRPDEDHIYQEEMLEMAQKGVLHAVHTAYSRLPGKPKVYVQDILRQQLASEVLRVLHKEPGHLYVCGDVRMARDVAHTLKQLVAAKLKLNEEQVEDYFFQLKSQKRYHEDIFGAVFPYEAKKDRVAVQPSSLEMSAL", "test": "Inhibition of human recombinant iNOS expressed in baculovirus infected Sf9 cells assessed as conversion of [3H]L-arginine to [3H]L-citrulline preincubated for 15 mins measured after 45 mins by liquid scintillation counting", "assay_type": "cell-based"}, "Cytochrome P450 3A4": {"biological_target": "Cytochrome P450 3A4 (Homo sapiens, UniProt P08684)", "sequence (P08684 whole entry)": "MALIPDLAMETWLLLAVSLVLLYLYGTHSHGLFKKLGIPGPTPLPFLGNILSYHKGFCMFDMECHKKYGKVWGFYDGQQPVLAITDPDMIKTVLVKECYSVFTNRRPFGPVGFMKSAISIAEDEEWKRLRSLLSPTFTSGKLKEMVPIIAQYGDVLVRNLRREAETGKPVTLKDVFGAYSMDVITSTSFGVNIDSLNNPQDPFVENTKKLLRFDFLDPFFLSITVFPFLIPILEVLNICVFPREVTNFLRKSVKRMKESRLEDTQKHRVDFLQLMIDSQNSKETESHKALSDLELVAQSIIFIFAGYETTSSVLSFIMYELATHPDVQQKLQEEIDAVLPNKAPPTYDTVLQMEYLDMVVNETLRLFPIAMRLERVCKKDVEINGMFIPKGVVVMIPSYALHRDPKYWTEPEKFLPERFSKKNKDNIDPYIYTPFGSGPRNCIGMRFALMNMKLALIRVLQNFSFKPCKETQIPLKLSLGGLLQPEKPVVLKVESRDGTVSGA", "test": "Inhibition of human CYP3A4", "assay_type": "ADME"}, "Cytochrome P450 2C9": {"biological_target": "Cytochrome P450 2C9 (Homo sapiens, UniProt P11712)", "sequence (P11712 whole entry)": "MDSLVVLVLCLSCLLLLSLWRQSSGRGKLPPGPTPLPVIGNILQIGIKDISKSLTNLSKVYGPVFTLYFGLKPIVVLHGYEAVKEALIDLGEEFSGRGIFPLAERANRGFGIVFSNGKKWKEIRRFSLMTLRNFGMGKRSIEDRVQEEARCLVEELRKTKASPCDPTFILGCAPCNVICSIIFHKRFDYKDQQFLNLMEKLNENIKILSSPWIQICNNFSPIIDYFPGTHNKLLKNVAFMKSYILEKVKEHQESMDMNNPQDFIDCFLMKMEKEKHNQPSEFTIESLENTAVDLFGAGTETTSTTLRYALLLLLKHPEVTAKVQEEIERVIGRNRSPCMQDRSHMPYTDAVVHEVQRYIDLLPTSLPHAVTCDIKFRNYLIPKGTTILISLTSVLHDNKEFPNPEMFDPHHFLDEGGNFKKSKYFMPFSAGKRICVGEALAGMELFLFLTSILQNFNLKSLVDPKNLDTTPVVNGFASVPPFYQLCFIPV", "test": "Inhibition of human CYP2C9", "assay_type": "ADME"}, "Cytochrome P450 1A2": {"biological_target": "T1, Cytochrome P450 1A2 (Homo sapiens, UniProt P05177)", "T1 sequence (P05177 whole entry)": "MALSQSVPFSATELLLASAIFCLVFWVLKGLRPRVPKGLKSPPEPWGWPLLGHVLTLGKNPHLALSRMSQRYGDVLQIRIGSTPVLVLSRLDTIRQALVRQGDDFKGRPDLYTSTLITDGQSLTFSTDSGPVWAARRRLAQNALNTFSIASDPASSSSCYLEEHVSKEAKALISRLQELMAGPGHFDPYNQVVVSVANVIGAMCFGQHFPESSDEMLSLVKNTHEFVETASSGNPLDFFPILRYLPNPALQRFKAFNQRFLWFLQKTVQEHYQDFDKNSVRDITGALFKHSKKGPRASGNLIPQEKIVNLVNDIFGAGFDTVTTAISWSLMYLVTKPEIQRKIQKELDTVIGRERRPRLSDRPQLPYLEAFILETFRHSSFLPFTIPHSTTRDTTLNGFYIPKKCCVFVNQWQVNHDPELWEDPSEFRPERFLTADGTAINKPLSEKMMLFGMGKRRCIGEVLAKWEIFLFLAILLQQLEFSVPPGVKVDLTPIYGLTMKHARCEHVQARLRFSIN", "test": "Inhibition of human CYP1A2", "assay_type": "ADME"}, "Cytochrome P450 2D6": {"biological_target": "Cytochrome P450 2D6 (Homo sapiens, UniProt P10635)", "sequence (P10635 whole entry)": "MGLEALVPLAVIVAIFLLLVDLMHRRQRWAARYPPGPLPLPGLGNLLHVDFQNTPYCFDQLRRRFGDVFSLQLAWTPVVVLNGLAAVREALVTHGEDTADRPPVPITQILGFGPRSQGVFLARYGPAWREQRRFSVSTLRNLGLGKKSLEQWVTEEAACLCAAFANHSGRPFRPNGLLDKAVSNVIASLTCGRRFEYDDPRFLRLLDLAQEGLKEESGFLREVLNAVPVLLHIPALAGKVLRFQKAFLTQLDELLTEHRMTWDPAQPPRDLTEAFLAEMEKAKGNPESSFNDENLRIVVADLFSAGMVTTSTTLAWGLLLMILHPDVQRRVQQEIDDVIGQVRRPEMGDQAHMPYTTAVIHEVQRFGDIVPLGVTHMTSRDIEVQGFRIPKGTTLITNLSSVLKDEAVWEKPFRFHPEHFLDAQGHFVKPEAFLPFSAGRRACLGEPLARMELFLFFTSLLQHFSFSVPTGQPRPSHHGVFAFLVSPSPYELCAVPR", "test": "Inhibition of human CYP2D6", "assay_type": "ADME"}, "Cytochrome P450 2C19": {"biological_target": "Cytochrome P450 2C19 (Homo sapiens, UniProt P33261)", "sequence (P33261 whole entry)": "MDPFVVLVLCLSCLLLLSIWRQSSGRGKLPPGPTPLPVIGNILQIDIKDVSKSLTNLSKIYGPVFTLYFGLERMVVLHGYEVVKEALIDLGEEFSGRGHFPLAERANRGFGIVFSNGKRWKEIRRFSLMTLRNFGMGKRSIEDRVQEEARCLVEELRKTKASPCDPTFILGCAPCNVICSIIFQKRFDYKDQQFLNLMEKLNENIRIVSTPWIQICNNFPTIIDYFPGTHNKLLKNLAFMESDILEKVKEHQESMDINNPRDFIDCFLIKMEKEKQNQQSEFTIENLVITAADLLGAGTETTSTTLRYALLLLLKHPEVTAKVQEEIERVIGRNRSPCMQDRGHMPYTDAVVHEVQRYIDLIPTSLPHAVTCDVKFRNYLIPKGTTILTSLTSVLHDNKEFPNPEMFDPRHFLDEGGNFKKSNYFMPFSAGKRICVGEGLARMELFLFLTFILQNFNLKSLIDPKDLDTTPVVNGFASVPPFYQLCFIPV", "test": "Inhibition of human CYP2C19", "assay_type": "ADME"}, "Nitric oxide synthase 3": {"biological_target": "T2, Nitric oxide synthase 3 (Homo sapiens, UniProt P29474)", "T2 sequence (P29474 whole entry)": "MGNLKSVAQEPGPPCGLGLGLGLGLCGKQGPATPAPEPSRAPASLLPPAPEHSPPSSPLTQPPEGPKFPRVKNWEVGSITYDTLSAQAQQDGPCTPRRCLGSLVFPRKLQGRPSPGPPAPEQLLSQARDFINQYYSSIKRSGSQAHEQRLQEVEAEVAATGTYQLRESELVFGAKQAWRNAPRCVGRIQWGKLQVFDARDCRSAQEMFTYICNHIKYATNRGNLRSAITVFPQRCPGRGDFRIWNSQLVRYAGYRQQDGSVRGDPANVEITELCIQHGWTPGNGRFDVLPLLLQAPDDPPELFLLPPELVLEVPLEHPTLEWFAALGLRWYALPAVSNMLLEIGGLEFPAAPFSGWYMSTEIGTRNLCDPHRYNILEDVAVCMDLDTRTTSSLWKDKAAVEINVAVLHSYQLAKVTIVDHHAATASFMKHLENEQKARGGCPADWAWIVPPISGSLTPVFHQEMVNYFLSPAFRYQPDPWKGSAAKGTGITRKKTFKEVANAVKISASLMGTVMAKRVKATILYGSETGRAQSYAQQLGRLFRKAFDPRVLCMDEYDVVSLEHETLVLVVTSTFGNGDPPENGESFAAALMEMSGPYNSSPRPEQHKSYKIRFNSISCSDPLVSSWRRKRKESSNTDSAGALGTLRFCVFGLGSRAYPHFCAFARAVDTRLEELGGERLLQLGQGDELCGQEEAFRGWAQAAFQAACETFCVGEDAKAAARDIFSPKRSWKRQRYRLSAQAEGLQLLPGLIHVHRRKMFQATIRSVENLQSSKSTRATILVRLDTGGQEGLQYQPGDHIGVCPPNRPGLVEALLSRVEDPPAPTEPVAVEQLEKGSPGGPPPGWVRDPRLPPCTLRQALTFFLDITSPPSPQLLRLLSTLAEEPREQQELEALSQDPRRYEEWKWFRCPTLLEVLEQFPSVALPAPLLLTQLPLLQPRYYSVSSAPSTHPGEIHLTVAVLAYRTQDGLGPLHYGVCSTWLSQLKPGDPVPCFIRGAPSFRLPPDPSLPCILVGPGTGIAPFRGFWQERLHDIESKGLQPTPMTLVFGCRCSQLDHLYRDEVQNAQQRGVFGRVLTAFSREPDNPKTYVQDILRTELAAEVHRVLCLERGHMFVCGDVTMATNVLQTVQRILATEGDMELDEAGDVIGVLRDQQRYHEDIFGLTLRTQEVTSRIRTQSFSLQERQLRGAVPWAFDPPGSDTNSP", "test": "Inhibition of human recombinant eNOS expressed in baculovirus infected Sf9 cells assessed as conversion of [3H]L-arginine to [3H]L-citrulline preincubated for 15 mins measured after 45 mins by liquid scintillation counting", "assay_type": "cell-based"}},
  "data": [
    {"smiles": "N=C(Nc1ccc2c(c1)CCC(=O)N2CCN1CCCC1)c1cccs1", "values": [
      {"measurement": "IC50", "setting": "Nitric oxide synthase 1", "result": 0.16, "unit": "µM"},
      {"measurement": "IC50", "setting": "[1]", "result": 11, "unit": "µM"}
    ]},
    {"smiles": "N=C(Nc1ccc2c(c1)CCC(=O)N2CCCN1CCCC1)c1cccs1", "values": [
      {"measurement": "IC50", "setting": "Nitric oxide synthase 1", "result": 1.22, "unit": "µM"},
      {"measurement": "IC50", "setting": "[1]", "result": "> 100", "unit": "µM"}
    ]},
    {"smiles": "CN(C)CCN1CCCc2cc(NC(=N)c3cccs3)ccc21", "values": [
      {"measurement": "IC50", "setting": "Cytochrome P450 3A4", "result": "> 100", "unit": "µM"},
      {"measurement": "IC50", "setting": "Cytochrome P450 2C9", "result": "> 100", "unit": "µM"},
      {"measurement": "IC50", "setting": "Cytochrome P450 1A2", "result": "> 100", "unit": "µM"},
      {"measurement": "IC50", "setting": "Cytochrome P450 2D6", "result": "> 100", "unit": "µM"},
      {"measurement": "IC50", "setting": "Cytochrome P450 2C19", "result": "> 100", "unit": "µM"}
    ]},
    {"smiles": "CCN(CC)CCN1CCCc2cc(NC(=N)c3cccs3)ccc21", "values": [
      {"measurement": "IC50", "setting": "Nitric oxide synthase 1", "result": 0.26, "unit": "µM"},
      {"measurement": "IC50", "setting": "[1]", "result": "> 100", "unit": "µM"}
    ]},
    {"smiles": "N=C(Nc1ccc2c(c1)CCCN2CCCN1CCCC1)c1cccs1", "values": [
      {"measurement": "IC50", "setting": "Nitric oxide synthase 3", "result": 9.5, "unit": "µM"},
      {"measurement": "IC50", "setting": "Nitric oxide synthase 1", "result": 0.086, "unit": "µM"}
    ]},
    {"smiles": "CCN(CC)CCN1C(=O)CCc2cc(NC(=N)c3cccs3)ccc21", "values": [
      {"measurement": "IC50", "setting": "[1]", "result": 12, "unit": "µM"}
    ]},
    {"smiles": "N=C(Nc1ccc2c(c1)CCC(=O)N2CCN1CCCCC1)c1cccs1", "values": [
      {"measurement": "IC50", "setting": "[1]", "result": "> 100", "unit": "µM"}
    ]},
    {"smiles": "CN(C)CCN1CCCc2cc(NC(=N)c3cccs3)cc(F)c21", "values": [
      {"measurement": "IC50", "setting": "Nitric oxide synthase 1", "result": 0.093, "unit": "µM"}
    ]},
    {"smiles": "CN(C)CCN1C(=O)CCc2cc(NC(=N)c3cccs3)ccc21", "values": [
      {"measurement": "IC50", "setting": "Cytochrome P450 3A4", "result": "> 100", "unit": "µM"},
      {"measurement": "IC50", "setting": "Cytochrome P450 2C9", "result": "> 100", "unit": "µM"},
      {"measurement": "IC50", "setting": "Cytochrome P450 1A2", "result": "> 100", "unit": "µM"},
      {"measurement": "IC50", "setting": "Cytochrome P450 2D6", "result": 12.2, "unit": "µM"},
      {"measurement": "IC50", "setting": "[1]", "result": 35, "unit": "µM"},
      {"measurement": "IC50", "setting": "Cytochrome P450 2C19", "result": "> 100", "unit": "µM"}
    ]},
    {"smiles": "CN(C)CCN1C(=O)CCc2cc(NC(=N)c3cccs3)cc(F)c21", "values": [
      {"measurement": "IC50", "setting": "Nitric oxide synthase 1", "result": 3.36, "unit": "µM"}
    ]},
    {"smiles": "CN1CCC(N2CCCc3cc(NC(=N)c4cccs4)ccc32)CC1", "values": [
      {"measurement": "IC50", "setting": "Nitric oxide synthase 3", "result": 42.7, "unit": "µM"},
      {"measurement": "IC50", "setting": "Nitric oxide synthase 1", "result": 0.82, "unit": "µM"}
    ]},
    {"smiles": "N=C(Nc1ccc2c(c1)CCCN2C1CCNCC1)c1cccs1", "values": [
      {"measurement": "IC50", "setting": "Cytochrome P450 3A4", "result": "> 100", "unit": "µM"},
      {"measurement": "IC50", "setting": "Cytochrome P450 2C9", "result": "> 100", "unit": "µM"},
      {"measurement": "IC50", "setting": "Nitric oxide synthase 3", "result": 119, "unit": "µM"},
      {"measurement": "IC50", "setting": "Cytochrome P450 1A2", "result": "> 100", "unit": "µM"},
      {"measurement": "IC50", "setting": "Nitric oxide synthase 1", "result": 0.54, "unit": "µM"},
      {"measurement": "IC50", "setting": "Cytochrome P450 2D6", "result": "> 100", "unit": "µM"},
      {"measurement": "IC50", "setting": "[1]", "result": "> 100", "unit": "µM"},
      {"measurement": "IC50", "setting": "Cytochrome P450 2C19", "result": 47.1, "unit": "µM"}
    ]},
    {"smiles": "CN1CCCC1CCN1C(=O)CCc2cc(NC(=N)c3cccs3)ccc21", "note": "(racemic)", "values": [
      {"measurement": "IC50", "setting": "Nitric oxide synthase 1", "result": 1.05, "unit": "µM"},
      {"measurement": "IC50", "setting": "[1]", "result": "> 100", "unit": "µM"}
    ]}
  ]
}
